Experiments:
[1] = molecular target: GDP-bound NRAS wild-type protein (Homo sapiens, UniProt P01111); experiment: Binding to NRAS by surface plasmon resonance (SPR), Single Cycle Kinetics; conditions: ratio of KD for GDP-bound NRAS wild-type protein to KD for KRAS, SPR
[2] = system: human lung cancer strain NCI-H441; experiment: cells; conditions: NCI-H441, 96 h, read-out: NCI-H441 IC50 (nM), NCI-H441 cell proliferation, 4 days, CellTiter-Glo;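 also: cell proliferation inhibition after four days measured by CellTiter-Glo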
[3] = molecular target: GDP-bound KRAS wild-type protein (Homo sapiens, UniProt P01116); experiment: Binding to KRAS by surface plasmon resonance (SPR), Single Cycle Kinetics; conditions: SPR, Single Cycle Kinetics, GDP-bound KRAS wild-type protein; read-out: KRAS KD
[4] = molecular target: GDP-bound HRAS wild-type protein (Homo sapiens, UniProt P01112); experiment: Binding to HRAS by surface plasmon resonance (SPR), Single Cycle Kinetics; conditions: ratio of KD for GDP-bound HRAS wild-type protein to KD for KRAS, SPR
GDP-bound HRAS wild-type protein, sequence (P01112 whole entry): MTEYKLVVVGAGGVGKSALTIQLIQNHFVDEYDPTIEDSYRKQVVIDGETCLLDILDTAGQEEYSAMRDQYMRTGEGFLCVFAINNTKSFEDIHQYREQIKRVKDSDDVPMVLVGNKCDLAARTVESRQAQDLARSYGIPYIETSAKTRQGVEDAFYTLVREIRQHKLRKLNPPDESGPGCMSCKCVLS

GDP-bound NRAS wild-type protein, sequence (P01111 whole entry): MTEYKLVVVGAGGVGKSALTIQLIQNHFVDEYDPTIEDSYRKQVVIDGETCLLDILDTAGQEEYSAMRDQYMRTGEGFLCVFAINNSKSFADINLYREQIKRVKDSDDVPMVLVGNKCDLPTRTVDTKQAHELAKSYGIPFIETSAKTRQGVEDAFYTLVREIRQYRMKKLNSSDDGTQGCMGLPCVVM
GDP-bound KRAS wild-type protein, sequence (P01116 whole entry): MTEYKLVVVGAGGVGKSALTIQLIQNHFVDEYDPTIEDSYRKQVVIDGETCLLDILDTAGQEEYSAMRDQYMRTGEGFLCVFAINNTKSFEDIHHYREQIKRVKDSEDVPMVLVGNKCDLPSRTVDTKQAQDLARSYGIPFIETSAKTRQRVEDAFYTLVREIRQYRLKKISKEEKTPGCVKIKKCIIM

Row | Structure (SMILES) | IC50 [2] [nM] | Kd [3] [nM] | NRAS/KRAS (KD ratio) [1] | HRAS/KRAS (KD ratio) [4]
1 | CCO[C@@H]1C[C@H]2C(=O)NC3(CC(C)(C)C3)C(=O)N(C)[C@@H](C3CCCC3)C(=O)N(C)[C@H](C(=O)N(C)CC)CC(=O)N(C)[C@@H](COC)C(=O)N[C@@H]([C@@H](C)CC)C(=O)N(C)CC(=O)N(C)[C@H]3C/C=C\CCN(C3=O)[C@@H](Cc3ccc(C(F)(F)F)cc3)C(=O)N(C)CC(=O)N[C@@H](CCc3ccc(C(F)(F)F)c(OC)c3)C(=O)N2C1 [PP1679] | 3.1 | 0.065 | A (a compound having 10 or more and less than 20 is denoted as A) | A (a compound having 10 or more and less than 20 is denoted as A)
2 | CCC[C@H]1C(=O)N[C@@H]([C@@H](C)CC)C(=O)N(C)CC(=O)N(C)[C@H]2C/C=C\CCN(C2=O)[C@@H](Cc2ccc(C(F)(F)F)cc2)C(=O)N(C)CC(=O)N[C@@H](CCc2cc(F)c(C(F)(F)F)c(F)c2)C(=O)N2C[C@@H](C)C[C@H]2C(=O)NC2(CC(C)(C)C2)C(=O)N(C)[C@@H](C2CCCC2)C(=O)N(C)[C@H](C(=O)N(C)C)CC(=O)N1C [PP1683] | 2.5 | 0.097 | A (a compound having 10 or more and less than 20 is denoted as A) | A (a compound having 10 or more and less than 20 is denoted as A)
3 | CCO[C@@H]1C[C@H]2C(=O)NC3(CC(C)(C)C3)C(=O)N(C)[C@@H](C(CC)CC)C(=O)N(C)[C@H](C3CCC3)CC(=O)N(C)[C@@H](CC3CC3)C(=O)N[C@@H]([C@@H](C)CC)C(=O)N(C)CC(=O)N(C)[C@H]3C/C=C\CCN(C3=O)[C@@H](Cc3ccc(C(F)(F)F)cc3)C(=O)N(C)CC(=O)N[C@@H](CCc3cc(F)c(C(F)(F)F)c(F)c3)C(=O)N2C1 [PP1634] | 144 | 5.1 | A (a compound having 10 or more and less than 20 is denoted as A) | A (a compound having 10 or more and less than 20 is denoted as A)
4 | CCCN(C)C(=O)[C@@H]1CC(=O)N(C)[C@@H](CC(F)(F)F)C(=O)N[C@@H]([C@@H](C)CC)C(=O)N(C)CC(=O)N(C)[C@H]2C/C=C\CCN(C2=O)[C@@H](Cc2ccc(C(F)(F)F)cc2)C(=O)N(C)CC(=O)N[C@@H](CCc2cc(F)c(C(F)(F)F)c(F)c2)C(=O)N2C[C@H](OCC)C[C@H]2C(=O)NC2(CCC2)C(=O)N(C)[C@@H](C2CCCC2)C(=O)N1C [PP1702] | 4.9 | 0.085 | A (a compound having 10 or more and less than 20 is denoted as A) | A (a compound having 10 or more and less than 20 is denoted as A)
5 | CCO[C@@H]1C[C@H]2C(=O)NC3(CC(C)(C)C3)C(=O)N(C)[C@@H](C3CCCC3)C(=O)N(C)[C@H](C3CCC3)CC(=O)N(C)[C@@H](CC3CC3)C(=O)N[C@@H]([C@@H](C)CC)C(=O)N(C)CC(=O)N(C)[C@H]3C/C=C\CCN(C3=O)[C@@H](Cc3ccc(C(F)(F)F)cc3)C(=O)N(C)CC(=O)N[C@@H](CCc3cc(F)c(C(F)(F)F)c(F)c3)C(=O)N2C1 [PP1635] | 36.3 | 0.64 | B (a compound having 3 or more and less than 10 is denoted as B) | A (a compound having 10 or more and less than 20 is denoted as A)
6 | CCCN(C)C(=O)[C@@H]1CC(=O)N(C)[C@@H](COC)C(=O)N[C@@H]([C@@H](C)CC)C(=O)N(C)CC(=O)N(C)[C@H]2C/C=C\CCN(C2=O)[C@@H](Cc2ccc(C(F)(F)F)cc2)C(=O)N(C)CC(=O)N[C@@H](CCc2cc(F)c(C(F)(F)F)c(F)c2)C(=O)N2C[C@H](OCC)C[C@H]2C(=O)NC2(CCC2)C(=O)N(C)[C@@H](C2CCCC2)C(=O)N1C [PP1706] | 6.7 | 0.075 | A (a compound having 10 or more and less than 20 is denoted as A) | A (a compound having 10 or more and less than 20 is denoted as A)

More lines, main results first:

Row | IC50 [2] [nM] | Kd [3] [nM] | Structure (SMILES) | NRAS/KRAS (KD ratio) [1] | HRAS/KRAS (KD ratio) [4]
7 | 17.7 | 0.19 | CC[C@H](C)[C@@H]1NC(=O)[C@H](CC)N(C)C(=O)C[C@@H](C(=O)N(C)CC)N(C)C(=O)[C@H](C2CCCC2)N(C)C(=O)C2(CCC2)NC(=O)[C@@H]2C[C@@H](C)CN2C(=O)[C@H](CCc2ccc(C(F)(F)F)c(OC)c2)NC(=O)CN(C)C(=O)[C@H](Cc2ccc(C)cc2)N2CC/C=C\C[C@@H](C2=O)N(C)C(=O)CN(C)C1=O [PP1855] | AA (a compound having 20 or more is denoted as AA) | A (a compound having 10 or more and less than 20 is denoted as A)
8 | 3 | 0.064 | CCCOC[C@H]1C(=O)N[C@@H]([C@@H](C)CC)C(=O)N(C)CC(=O)N(C)[C@H]2C/C=C\CCN(C2=O)[C@@H](Cc2ccc(C(F)(F)F)cc2)C(=O)N(C)CC(=O)N[C@@H](CCc2ccc(C(F)(F)F)c(Cl)c2)C(=O)N2C[C@H](OCC)C[C@H]2C(=O)NC2(CC(C)(C)C2)C(=O)N(C)[C@@H](C2CCCC2)C(=O)N(C)[C@H](C(=O)N(C)C)CC(=O)N1C [PP1754] | A (a compound having 10 or more and less than 20 is denoted as A) | A (a compound having 10 or more and less than 20 is denoted as A)
9 | 8.3 | 0.19 | CCCN(C)C(=O)[C@@H]1CC(=O)N(C)[C@@H](C(C)C)C(=O)N[C@@H]([C@@H](C)CC)C(=O)N(C)CC(=O)N(C)[C@H]2C/C=C\CCN(C2=O)[C@@H](Cc2ccc(C(F)(F)F)cc2)C(=O)N(C)CC(=O)N[C@@H](CCc2ccc(C(F)(F)F)c(OC)c2)C(=O)N2C[C@H](OCC)C[C@H]2C(=O)NC2(CCC2)C(=O)N(C)[C@@H](C2CCCC2)C(=O)N1C [PP2020] | A (a compound having 10 or more and less than 20 is denoted as A) | A (a compound having 10 or more and less than 20 is denoted as A)
10 | 98.7 | 0.54 | CC[C@H](C)[C@@H]1NC(=O)[C@H](CC(C)C)N(C)C(=O)C[C@@H](C(=O)N(C)C)N(C)C(=O)[C@H](C2CCCC2)N(C)C(=O)C2(CC(C)(C)C2)NC(=O)CN(C)C(=O)[C@H](CCc2cc(F)c(C(F)(F)F)c(F)c2)NC(=O)CN(C)C(=O)[C@H](Cc2ccc(C(F)(F)F)cc2)N2CC/C=C\C[C@@H](C2=O)N(C)C(=O)CN(C)C1=O [PP1776] | A (a compound having 10 or more and less than 20 is denoted as A) | A (a compound having 10 or more and less than 20 is denoted as A)
11 | 7.7 | 0.13 | CCCN(C)C(=O)[C@@H]1CC(=O)N(C)[C@@H](CC(F)F)C(=O)N[C@@H]([C@@H](C)CC)C(=O)N(C)CC(=O)N(C)[C@H]2C/C=C\CCN(C2=O)[C@@H](Cc2ccc(C(F)(F)F)cc2)C(=O)N(C)CC(=O)N[C@@H](CCc2ccc(C(F)(F)F)c(OC)c2)C(=O)N2C[C@H](OCC)C[C@H]2C(=O)NC2(CCC2)C(=O)N(C)[C@@H](C2CCCC2)C(=O)N1C [PP2013] | A (a compound having 10 or more and less than 20 is denoted as A) | B (a compound having 3 or more and less than 10 is denoted as B)
12 | 24 | 0.28 | CCO[C@@H]1C[C@H]2C(=O)NC3(CC(C)(C)C3)C(=O)N(C)[C@@H](C3CCCC3)C(=O)N(C)[C@H](C(=O)N(CC)CC)CC(=O)N(C)[C@@H](CC)C(=O)N[C@@H]([C@@H](C)CC)C(=O)N(C)CC(=O)N(C)[C@H]3C/C=C\CCN(C3=O)[C@@H](Cc3ccc(C)cc3)C(=O)N(C)CC(=O)N[C@@H](CCc3ccc(C(F)(F)F)c(Cl)c3)C(=O)N2C1 [PP1883] | A (a compound having 10 or more and less than 20 is denoted as A) | A (a compound having 10 or more and less than 20 is denoted as A)
13 | 17.6 | 0.32 | CCCN1C(=O)C[C@@H](C(=O)N(C)C)N(C)C(=O)[C@H](C2CCCC2)N(C)C(=O)C2(CCC2)NC(=O)[C@@H]2C[C@@H](OCC)CN2C(=O)[C@H](CCc2cc(F)c(C(F)(F)F)c(F)c2)NC(=O)CN(C)C(=O)[C@H](Cc2ccc(C(F)(F)F)cc2)N2CC/C=C\C[C@@H](C2=O)N(C)C(=O)CNC(=O)[C@H]([C@@H](C)CC)NC(=O)[C@@H]1CC(C)C [PP1826] | A (a compound having 10 or more and less than 20 is denoted as A) | A (a compound having 10 or more and less than 20 is denoted as A)
14 | 6.4 | 0.099 | CCCN(C)C(=O)[C@@H]1CC(=O)N(C)[C@@H](CC)C(=O)N[C@@H]([C@@H](C)CC)C(=O)N(C)CC(=O)N(C)[C@H]2C/C=C\CCN(C2=O)[C@@H](Cc2ccc(C(F)(F)F)cc2)C(=O)N(C)CC(=O)N[C@@H](CCc2cc(F)c(C(F)(F)F)c(F)c2)C(=O)N2C[C@H](OCC)C[C@H]2C(=O)NC2(CC(F)(F)C2)C(=O)N(C)[C@@H](C2CCCC2)C(=O)N1C [PP1732] | AA (a compound having 20 or more is denoted as AA) | A (a compound having 10 or more and less than 20 is denoted as A)
15 | 14.3 | 0.23 | CC[C@H](C)[C@@H]1NC(=O)[C@H](CC)N(C)C(=O)C[C@@H](C(=O)N(C)C)N(C)C(=O)[C@H](C2CCCC2)N(C)C(=O)C2(CCCC2)N(C)C(=O)[C@@H]2CCCN2C(=O)[C@H](CCc2cc(F)c(C(F)(F)F)c(F)c2)NC(=O)CN(C)C(=O)[C@H](Cc2ccc(C)cc2)N2CC/C=C\C[C@@H](C2=O)N(C)C(=O)[C@@H]2CCCN2C1=O [PP1811] | A (a compound having 10 or more and less than 20 is denoted as A) | B (a compound having 3 or more and less than 10 is denoted as B)
